Measured values: patent US12178791B2, “Haloallylamine sulfone derivative inhibitors of lysyl oxidases and uses thereof” (Syntara Limited, priority 2018, dated 2024)
Counter-ions that a name gives are not always drawn.

Legend:
Type in all cases: biochemical
Bovine LOX = Bovine LOX (Bos taurus (Bovine), UniProt P33072); assay: LOX inhibition, Amplex Red oxidation assay; details: 30 min preincubation at 37 °C, putrescine substrate
From the text: Lysyl oxidase (LOX) is an extracellular copper dependent enzyme which oxidizes peptidyl lysine and hydroxylysine residues in collagen and lysine residues in elastin to produce peptidyl alpha-aminoadipic-delta-semialdehydes. […] There are five LOX family members; these are LOX, LOXL1, LOXL2, LOXL3 and LOXL4. LOX and LOXL family members can be acquired as recombinant active proteins from commercial sources, or extracted from animal tissues like bovine aorta, tendons, pig skin; or prepared from cell cultures. The inhibitory effects of the compounds of the present invention were tested against the given LOX-LOXL preparation using a method based on the detection of hydrogen peroxide with an Amplex Red oxidation assay (Zhou et al. A stable nonfluorescent derivative of resorufin for the fluorometric determination of trace hydrogen peroxide: applications in detecting the activity of phagocyte NADPH oxidase and other oxidases. Anal. Biochem. 1997; 253, 162-168). The assay was developed using either 384 or 96 well format. Briefly, in a standard black, clear bottom 384 well plate assay 25 μL of a dilution of any of the isoenzymes and orthologues in 1.2 M urea, 50 mM sodium borate buffer (pH 8.2) were added into each well in the presence of 1 μM mofegiline and 0.5 mM pargyline (to inhibit SSAO and MAO-B and MAO-A, respectively; not necessary if the enzyme is from a recombinant or purified form). […] Twenty five μL of a reaction mixture containing twice the KM concentration of putrescine (Sigma Aldrich, e.g. 20 mM for LOX, or 10 mM for LOXL2 and LOXL3), 120 μM Amplex Red (Sigma Aldrich) and 1.5 U/mL horseradish peroxidase (Sigma Aldrich) prepared in 1.2 M urea, 50 mM sodium borate buffer (pH 8.2) were then added to the corresponding wells. The above volumes were doubled in the case of 96 wells plate. The fluorescence (RFU) was read every 2.5 min for 30 min at […] 37° C., excitation 565 nm and emission 590 (Optima; BMG labtech). The slope of the kinetics for each well was calculated using MARS data analysis software (BMG labtech) and this value was used to deduce the IC50 value (Dotmatics).

LOXL2 [1] = target: T1, LOXL2 (Homo sapiens (Human), UniProt Q9Y4K0); assay: LOXL2 inhibition, Amplex Red oxidation assay; details: 30 min preincubation at 37 °C, putrescine substrate
From the text: Lysyl oxidase (LOX) is an extracellular copper dependent enzyme which oxidizes peptidyl lysine and hydroxylysine residues in collagen and lysine residues in elastin to produce peptidyl alpha-aminoadipic-delta-semialdehydes. […] There are five LOX family members; these are LOX, LOXL1, LOXL2, LOXL3 and LOXL4. LOX and LOXL family members can be acquired as recombinant active proteins from commercial sources, or extracted from animal tissues like bovine aorta, tendons, pig skin; or prepared from cell cultures. The inhibitory effects of the compounds of the present invention were tested against the given LOX-LOXL preparation using a method based on the detection of hydrogen peroxide with an Amplex Red oxidation assay (Zhou et al. A stable nonfluorescent derivative of resorufin for the fluorometric determination of trace hydrogen peroxide: applications in detecting the activity of phagocyte NADPH oxidase and other oxidases. Anal. Biochem. 1997; 253, 162-168). The assay was developed using either 384 or 96 well format. Briefly, in a standard black, clear bottom 384 well plate assay 25 μL of a dilution of any of the isoenzymes and orthologues in 1.2 M urea, 50 mM sodium borate buffer (pH 8.2) were added into each well in the presence of 1 μM mofegiline and 0.5 mM pargyline (to inhibit SSAO and MAO-B and MAO-A, respectively; not necessary if the enzyme is from a recombinant or purified form). Test compounds were dissolved in DMSO and tested in a Concentration Response Curve (CRC) with 11 data points, typically in the micromolar or nanomolar range after incubation with the enzyme for 30 min at 37° C. Twenty five μL of a reaction mixture containing twice the KM concentration of putrescine (Sigma Aldrich, e.g. 20 mM for LOX, or 10 mM for LOXL2 and LOXL3), 120 μM Amplex Red (Sigma Aldrich) and 1.5 U/mL horseradish peroxidase (Sigma Aldrich) prepared in 1.2 M urea, 50 mM sodium borate buffer (pH 8.2) were then added to the corresponding wells. The above volumes were doubled in the case of 96 wells plate. The fluorescence (RFU) was read every 2.5 min for 30 min at […] 37° C., excitation 565 nm and emission 590 (Optima; BMG labtech). The slope of the kinetics for each well was calculated using MARS data analysis software (BMG labtech) and this value was used to deduce the IC50 value (Dotmatics).

LOXL1 = LOXL1 (Homo sapiens (Human), UniProt Q08397); assay: Jump dilution experiment, sustained inhibition of LOXL1; details: jump dilution after 40 min at 37 °C with 10× or 30× IC50; vs non-inhibited controls;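 further: 30× IC50 used only where needed so inhibitor exceeds enzyme concentration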
Experimental: (§1) Jump Dilution experiment: The assay was developed using a 96 well format and the starting enzyme concentration was set 100 times higher than for the inhibition studies. […] After the incubation, the mixture was diluted 50× in assay buffer, followed by a further 2× dilution in Amplex Red-horseradish peroxidase-putrescine reaction mix (same as per the inhibition studies) prior to the fluorescent measurement. Results were expressed in % recovery of the signal after a specified time by comparison with non-inhibited controls.

LOXL2 [2] = target: T1, LOXL2; assay: Jump dilution experiment, sustained inhibition of LOXL2; details: jump dilution after 40 min at 37 °C with 10× or 30× IC50; vs non-inhibited controls;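 further: 30× IC50 used only where needed so inhibitor exceeds enzyme concentration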
Experimental: as §1

[3] = target: Human recombinant SSAO/VAP-1 (Homo sapiens (Human), UniProt Q16853); assay: Inhibition of human recombinant SSAO/VAP-1; details: 30 min preincubation at 37 °C, benzylamine 600 μM; read-out: SSAO/VAP-1 Activity IC50
Experimental: Human recombinant SSAO/VAP-1 amine oxidase activity was determined using the coupled colorimetric method as described for monoamine oxidase, copper-containing amine oxidases and related enzymes (Holt A. and Palcic M., A peroxidase-coupled continuous absorbance plate-reader assay for flavin monoamine oxidases, copper-containing amine oxidases and related enzymes. Nat Protoc 2006; 1: 2498-2505). Briefly, a cloned cDNA template corresponding to residues 34-763 of human SSAO/VAP-1, and incorporating a mouse Ig kappa (κ) signal sequence, N-terminal flag epitope tag and tobacco etch virus (TEV) cleavage site, was assembled in a mammalian expression vector (pLO-CMV) by Geneart AG. This vector containing human SSAO/VAP-1 residues was transfected into CHO-Kl glycosylation mutant cell line, Lec 8. A clone stably expressing human SSAO/VAP-1 was isolated and cultured in large scale. Active human SSAO/VAP-1 was purified and recovered using immunoaffinity chromatography. This was used as the source for SSAO/VAP-1 activity. A high-throughput colorimetric assay was developed using either 96 or 384 well format. Briefly, in a standard 96 well plate assay 50 μL of purified human SSAO/VAP-1 (0.25 μg/mL) in 0.1 M sodium phosphate buffer (pH 7.4) was added into each well. Test compounds were dissolved in DMSO and tested in a Concentration Response Curve (CRC) with 4-11 data points, typically in the micromolar or nanomolar range after incubation with human SSAO/VAP-1 for 30 min at 37° C. After 30 min incubation, 50 μL of the reaction mixture containing 600 μM benzylamine (Sigma Aldrich), 120 μM Amplex Red (Sigma Aldrich) and 1.5 U/mL horseradish peroxidase (Sigma Aldrich) prepared in 0.1 M sodium phosphate buffer (pH 7.4) were added to the corresponding well. The fluorescence unit (RFU) was read every 2.5 min for 30 min at 37° C. excitation 565 nm and emission 590 (Optima; BMG labtech). The slope of the kinetics for each well was calculated using MARS data analysis software (BMG labtech) and this value was used to deduce the IC50 value (Dotmatics).

Recombinant human MAO-B = Recombinant human MAO-B (Homo sapiens (Human), UniProt P27338); assay: Inhibition of human recombinant MAO-B; details: benzylamine 100 μM
Experimental: The specificity of the compounds of this invention was tested by determining their ability to inhibit MAO-B activities in vitro. Recombinant human MAO-B (0.06 mg/mL; Sigma Aldrich) was used as source of MAO-B enzyme activities. The assay was performed in a similar way as for human SSAO/VAP-1 (Example 28) except, the substrate benzylamine was used at 100 μM.

Bovine LOX, sequence (P33072 170-418): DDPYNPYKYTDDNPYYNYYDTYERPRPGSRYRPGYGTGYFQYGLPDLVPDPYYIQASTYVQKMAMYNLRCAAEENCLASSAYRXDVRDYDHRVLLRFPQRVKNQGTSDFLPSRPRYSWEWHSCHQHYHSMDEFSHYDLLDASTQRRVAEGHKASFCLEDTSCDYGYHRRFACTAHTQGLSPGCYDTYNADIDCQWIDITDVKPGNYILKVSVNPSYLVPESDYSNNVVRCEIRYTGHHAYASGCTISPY
Recombinant human MAO-B, sequence (P27338 whole entry): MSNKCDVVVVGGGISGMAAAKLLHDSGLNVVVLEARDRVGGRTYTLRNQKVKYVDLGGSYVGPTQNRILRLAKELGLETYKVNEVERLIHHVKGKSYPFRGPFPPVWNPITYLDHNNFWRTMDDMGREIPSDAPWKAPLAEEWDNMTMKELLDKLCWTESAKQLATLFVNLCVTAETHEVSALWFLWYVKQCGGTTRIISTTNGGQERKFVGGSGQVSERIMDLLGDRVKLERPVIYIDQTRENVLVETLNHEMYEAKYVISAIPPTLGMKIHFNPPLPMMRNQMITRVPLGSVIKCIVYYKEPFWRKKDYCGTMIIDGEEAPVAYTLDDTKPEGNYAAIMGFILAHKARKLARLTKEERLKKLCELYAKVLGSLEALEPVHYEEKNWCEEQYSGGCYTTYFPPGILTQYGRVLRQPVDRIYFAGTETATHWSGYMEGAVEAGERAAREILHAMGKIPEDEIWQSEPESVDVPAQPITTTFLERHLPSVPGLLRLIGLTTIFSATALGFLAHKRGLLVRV
Human recombinant SSAO/VAP-1, sequence (Q16853 34-763): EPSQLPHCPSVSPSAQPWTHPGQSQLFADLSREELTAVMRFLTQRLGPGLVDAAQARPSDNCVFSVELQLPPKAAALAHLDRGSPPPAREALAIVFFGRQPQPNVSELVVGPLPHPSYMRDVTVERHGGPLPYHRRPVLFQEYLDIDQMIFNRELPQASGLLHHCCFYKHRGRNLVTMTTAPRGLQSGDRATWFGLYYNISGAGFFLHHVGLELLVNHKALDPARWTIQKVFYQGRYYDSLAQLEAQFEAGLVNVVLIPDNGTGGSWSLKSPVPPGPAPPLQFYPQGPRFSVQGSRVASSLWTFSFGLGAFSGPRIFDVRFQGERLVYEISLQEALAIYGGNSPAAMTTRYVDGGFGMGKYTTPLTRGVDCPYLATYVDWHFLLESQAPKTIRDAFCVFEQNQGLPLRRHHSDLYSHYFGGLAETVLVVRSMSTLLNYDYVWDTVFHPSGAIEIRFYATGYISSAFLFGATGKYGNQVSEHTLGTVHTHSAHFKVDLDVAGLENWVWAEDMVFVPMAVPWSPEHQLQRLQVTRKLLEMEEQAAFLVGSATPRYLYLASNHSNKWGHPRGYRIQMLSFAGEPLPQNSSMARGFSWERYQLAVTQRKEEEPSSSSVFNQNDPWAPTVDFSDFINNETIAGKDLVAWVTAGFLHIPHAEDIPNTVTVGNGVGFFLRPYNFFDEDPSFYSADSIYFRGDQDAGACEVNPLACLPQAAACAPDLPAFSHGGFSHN
T1 sequence (Q9Y4K0 26-774): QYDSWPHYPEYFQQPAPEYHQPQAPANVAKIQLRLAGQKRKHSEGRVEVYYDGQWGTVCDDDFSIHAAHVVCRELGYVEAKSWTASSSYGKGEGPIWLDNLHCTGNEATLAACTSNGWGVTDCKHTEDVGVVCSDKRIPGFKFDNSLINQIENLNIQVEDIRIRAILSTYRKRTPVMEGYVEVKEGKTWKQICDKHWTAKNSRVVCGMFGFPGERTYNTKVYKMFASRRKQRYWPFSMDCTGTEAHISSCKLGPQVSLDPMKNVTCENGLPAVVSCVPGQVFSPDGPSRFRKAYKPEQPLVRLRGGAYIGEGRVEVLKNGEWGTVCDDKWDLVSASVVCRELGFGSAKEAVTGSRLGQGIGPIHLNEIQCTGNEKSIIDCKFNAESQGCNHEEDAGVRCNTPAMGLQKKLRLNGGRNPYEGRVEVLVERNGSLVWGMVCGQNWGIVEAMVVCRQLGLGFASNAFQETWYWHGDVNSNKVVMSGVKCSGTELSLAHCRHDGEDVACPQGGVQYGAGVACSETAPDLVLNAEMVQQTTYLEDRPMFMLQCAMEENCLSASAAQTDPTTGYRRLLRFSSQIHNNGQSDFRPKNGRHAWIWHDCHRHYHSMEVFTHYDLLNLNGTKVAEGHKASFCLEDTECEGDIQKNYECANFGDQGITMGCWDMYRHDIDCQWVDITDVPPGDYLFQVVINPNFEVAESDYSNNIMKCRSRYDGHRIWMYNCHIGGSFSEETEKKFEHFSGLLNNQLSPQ
LOXL1, sequence (Q08397 96-574, species assumed): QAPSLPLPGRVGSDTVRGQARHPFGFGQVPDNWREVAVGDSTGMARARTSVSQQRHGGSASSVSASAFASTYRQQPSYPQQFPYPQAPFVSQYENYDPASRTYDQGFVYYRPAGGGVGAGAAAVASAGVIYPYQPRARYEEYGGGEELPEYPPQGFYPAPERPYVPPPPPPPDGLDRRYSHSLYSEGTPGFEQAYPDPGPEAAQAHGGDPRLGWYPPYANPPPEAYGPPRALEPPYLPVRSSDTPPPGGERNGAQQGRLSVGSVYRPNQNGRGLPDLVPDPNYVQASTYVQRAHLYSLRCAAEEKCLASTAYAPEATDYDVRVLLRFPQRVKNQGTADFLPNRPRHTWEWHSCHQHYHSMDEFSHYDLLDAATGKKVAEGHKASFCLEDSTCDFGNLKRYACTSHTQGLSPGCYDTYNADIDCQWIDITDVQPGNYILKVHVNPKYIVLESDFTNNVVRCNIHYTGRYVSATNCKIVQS

SMILES	IC50 (Bovine LOX) [µM]	IC50 (LOXL2 [1]) [µM]	LOXL1 - Recovery of activity. (%) (LOXL1)	LOXL2 - Recovery of activity. (%) (LOXL2 [2])	IC50 [3] [µM]	IC50 (Recombinant human MAO-B) [µM]
CN(C)S(=O)(=O)c1ccc(COc2cccc(S(=O)(=O)C/C(F)=C/CN)c2)cc1 [Compound 9, (Z)-4-((3-((4-amino-2-fluorobut-2-en-1-yl)sulfonyl)phenoxy)methyl)-N,N-dimethylbenzenesulfonamide hydrochloride]	< 1	< 1	4.4	15.1	> 30	< 10
CN(C)S(=O)(=O)c1ccc(Oc2ccccc2S(=O)(=O)C/C(F)=C/CN)cc1 [Compound 6, (Z)-4-(2-((4-amino-2-fluorobut-2-en-1-yl)sulfonyl)phenoxy)-N,N-dimethylbenzenesulfonamide hydrochloride]	< 10	< 1	2.5	10.4	> 30	> 30
CN(C)S(=O)(=O)c1ccc(Oc2cccc(S(=O)(=O)C/C(F)=C/CN)c2)cc1 [Compound 16, (Z)-4-(3-(4-amino-2-fluorobut-2-enylsulfonyl)phenoxy)-N,N-dimethylbenzenesulfonamide hydrochloride]	< 1	< 1	–	14.4	–	–
CN(C)S(=O)(=O)c1ccc(COc2ccc(S(=O)(=O)C/C(F)=C/CN)cc2)cc1 [Compound 10, (Z)-4-((4-((4-amino-2-fluorobut-2-en-1-yl)sulfonyl)phenoxy)methyl)-N,N-dimethylbenzenesulfonamide hydrochloride]	< 10	< 10	–	15.2	> 30	> 30
NC/C=C(\F)CS(=O)(=O)c1cccc(C(=O)NC23CC4CC(CC(C4)C2)C3)c1 [Compound 13, N-(adamantan-1-yl)-3-(((Z)-4-amino-2-fluorobut-2-en-1-yl)sulfonyl)benzamide hydrochloride]	< 10	< 10	3.5	8.9	> 30	< 10
CN(C)S(=O)(=O)c1cccc(Oc2ccccc2S(=O)(=O)C/C(F)=C/CN)c1 [Compound 18, (Z)-3-(2-(4-amino-2-fluorobut-2-enylsulfonyl)phenoxy)-N,N-dimethylbenzenesulfonamide hydrochloride]	< 1	< 1	–	6.9	–	–
NC/C=C(\F)CS(=O)(=O)c1ccc(C(=O)NC23CC4CC(CC(C4)C2)C3)cc1 [Compound 4, N-(adamantan-1-yl)-4-(((Z)-4-amino-2-fluorobut-2-en-1-yl)sulfonyl)benzamide hydrochloride]	< 10	< 10	16.7	21.2	> 30	< 10
CN(C)S(=O)(=O)c1cccc(Oc2cccc(S(=O)(=O)C/C(F)=C/CN)c2)c1 [Compound 17, (Z)-3-(3-(4-amino-2-fluorobut-2-enylsulfonyl)phenoxy)-N,N-dimethylbenzenesulfonamide hydrochloride]	< 10	< 1	–	5.3	–	–
NC/C=C(\F)CS(=O)(=O)c1ccccc1C(=O)NC12CC3CC(CC(C3)C1)C2 [Compound 12, N-(adamantan-1-yl)-2-(((Z)-4-amino-2-fluorobut-2-en-1-yl)sulfonyl)benzamide hydrochloride]	< 10	< 1	2.6	9.3	> 30	> 30
CN(C)S(=O)(=O)c1ccc(COc2ccccc2S(=O)(=O)C/C(F)=C/CN)cc1 [Compound 5, (Z)-4-((2-((4-amino-2-fluorobut-2-en-1-yl)sulfonyl)phenoxy)methyl)-N,N-dimethylbenzenesulfonamide hydrochloride]	< 1	< 1	3.6	10.0	> 30	> 30
